From the NIST ThermoML archive (doi:10.1016/j.jct.2014.01.030)

Experiment: xn = mol fraction of the nth substance listed
Details: 101 kPa, Liquid; for speed of sound: Sing-around technique in a fixed-path interferometer; for mass density: Vibrating tube method

CCn1cc[n+](C)c1.COS(=O)(=O)[O-] [1-ethyl-3-methylimidazolium methylsulfate] + CCC(C)O
Details	mass density, 288.15 K [kg/m3]	mass density, 298.15 K [kg/m3]	mass density, 308.15 K [kg/m3]	speed of sound, 288.15 K [m/s]	speed of sound, 298.15 K [m/s]	speed of sound, 308.15 K [m/s]
x2 = 0	1287.57	1280.81	1273.97	1781	1756	1732
x2 = 0.054	1274.82	1267.9	1261.04	1762	1738	1714
x2 = 0.106	1261.26	1254.37	1247.52	1743	1718	1693
x2 = 0.204	1233.86	1226.94	1220.05	1698	1673	1649
x2 = 0.306	1201.1	1194.21	1187.37	1644	1619	1594
x2 = 0.405	1165.21	1158.22	1151.25	1587	1562	1536
x2 = 0.507	1122.93	1115.87	1108.83	1527	1501	1475
x2 = 0.608	1075.89	1068.69	1061.49	1467	1440	1414
x2 = 0.713	1019.51	1012.15	1004.76	1406	1378	1350
x2 = 0.801	964.94	957.44	949.85	1356	1326	1297
x2 = 0.905	890.81	883.1	875.21	1299	1267	1235
x2 = 0.948	856.61	848.81	840.73	1277	1244	1210

CCn1cc[n+](C)c1.COS(=O)(=O)[O-] [1-ethyl-3-methylimidazolium methylsulfate] + CO
Details	mass density, 288.15 K [kg/m3]	mass density, 298.15 K [kg/m3]	mass density, 308.15 K [kg/m3]	speed of sound, 288.15 K [m/s]	speed of sound, 298.15 K [m/s]	speed of sound, 308.15 K [m/s]
x2 = 0	1287.57	1280.81	1273.97	1781	1756	1732
x2 = 0.0515	1282.18	1275.24	1268.37	1772	1748	1724
x2 = 0.1025	1276.36	1269.42	1262.52	1763	1739	1715
x2 = 0.1919	1265.13	1258.14	1251.2	1747	1722	1698
x2 = 0.3013	1247.5	1240.45	1233.43	1720	1695	1670
x2 = 0.4032	1227.98	1220.84	1213.74	1690	1665	1640
x2 = 0.5038	1203.27	1196.01	1188.8	1653	1628	1602
x2 = 0.604	1170.7	1163.31	1155.94	1605	1578	1553
x2 = 0.7023	1127.32	1119.71	1112.12	1541	1514	1487
x2 = 0.8003	1065.67	1057.76	1049.86	1452	1424	1397
x2 = 0.9049	962.26	953.82	945.37	1316	1286	1258
x2 = 0.9515	893.83	885.04	876.21	1237	1206	1176
